Where no end group is shown, it is not given here. The star is where a group is joined. Biotin = O=C1N[C@H]2[C@H](CS[C@H]2CCCCC(=O)*)N1
Assays:
[1] = tested on: aPL (pool from APS patients); experiment: Determination of aPL by ELISA on coated peptides / biotinylated peptides (custom immunoassay); type: binding, Human; details: for increase fold mean of aPL interaction relative to β2GP1: ELISA, 1/10 dilution of aPL pool, reference reduced β2GP1 (FIG. 1A)
Description: Determination of aPL by ELISA—MaxiSorp™ 96 well plates (Nunc) or Streptavidin plate (Thermofisher) were coated with 10 μg/ml recombinant domains of β2GP1, peptides or biotinylated-peptide prior to incubation with aPLA. Secondary anti-human antibodies conjugated to IR800CW (Rockland) or HRP were used. Protein- or peptide-bound antibodies were detected and quantified by the Odyssey system (Li-Cor Biosciences) or absorbance in optical densities (OD) was determined at 405 nm (molecular Devices™ Filtermax).
(§1) The de Groot's research group has pointed at the importance of hydrophobic character of the plate during coating of R39-R43 epitope. In order to abrogate of the plate-dependent aPL binding, the Ia-1 and Ib-1 peptides as well as the R39-R43 with a biotin at their N-terminal were synthetized and coated a streptavidin plate. In this configuration, the different peptides are flag oriented in the space preventing any interaction with the plate. It was thus observed that the flag-type orientation of R39-R43-biot leads to 8.52×more interaction with aPL while they show 9.63×more binding for Ib-1-biot presenting the same position. […] The surface plasmon resonance (SPR) technique is used to determine the relative avidity of aPL for R39-R43-biot and Ib-1-biot. The interaction between aPL and immobilized R39-R43-biot or Ib-1-biot is monitored by flowing various concentrations of aPL over a R39-R43-biot- or Ib-1-biot-coated chip surface (FIG. 1C). Through SPR experiments, it appears that aPL avidity for Ib-1-biot presents a resonance unit (RU) of 51.49 at 1/1,000 of dilution and a RU of 27.61 at 1/10,000 of dilution while, at the same dilution, it present a RU of 27.36 and a RU of 17.99 with R39-R43-biot, respectively (FIG. 1C). However, at higher concentrations, the peptides seems to show no differences in the interactions with aPL. […] Considering that IgG valency, it was decided to generate a dimeric Ib-1-biot peptide (Ib-1-biot-2x). This new polypeptide carries thus two optimized epitopes which have the opportunity to interact with two Fab fragment present on aPL. […] At higher concentration, i.e dilution of 1/100, the avidity for dimeric peptide is 28×more than for the monomeric (FIG. 1D).
It was performed a peptide substitution scan of Ib-1-biot VSRGGMRKKKKPLTG (SEQ ID NO: 6) carrying the optimized epitope Ib-1-biot and based on an exchange of the underlined amino acid positions with the 20 main amino acids. The resulting peptide microarrays contained 140 different peptides. It was observed that the peptide substitution of the position n° 1, 2, 12 and 15 have significant influences on the ability to interact with aPL from patients 1, 2, 3, 4 and, in particular, form the plasma pool. Indeed, the substitution of the position 1, 12 or 15 by an Arginine (R) or a Lysine (K) increases the avidity of the peptide for all aPL from patients. […] In this context, the enhancement relative to Ib-1.0-biot-2x of identified peptides was evaluated (FIG. 2A). […] However, streptavidin being known to produce unspecific binding, it was used the ratio between aPL and a pool of human plasma as control (B/B0) (FIG. 2B, upper panel). This representation therefore allows to distinguish the real levels of interactions. It was then performed a dilution assay from dilution of 1/100 to 1/1,200,000 and it was observed relevant differences between the different identified peptides. By comparison of area under the curve (AUC), it was possible to detect the most prone-interacting peptide with aPL. Thus, the peptide IIa-8.0-biot-2x obtained the higher AUC (FIG. 2B, bottom panel). To formally quantify the ability of aPL to interact with IIa-8.0-biot-2x, it was monitored by flowing various concentrations of aPL over a IIa-8.0-biot-2x-coated chip surface (FIG. 2C). […] In FIG. 2C, bottom panel, it can be appreciated more precisely the improvement of the quality of interactions. […]

[2] = tested on: aPL from a pool of 13 Human patients; experiment: Surface plasmon resonance, aPL flown over biotin-peptide-coated SA chip (BIAcore X100); type: binding; details: for sustained interaction / stability of binding with aPL (shape of SPR curves): stabilization curves
Description: The kinetics and affinity of protein-protein and protein-lipid interactions were determined using a BIAcore X100 instrument. 1 mg/ml of biotin-tagged peptide (ligand) was immobilized using a sensor chip SA (GE Healthcare) surface, whereas aPL from a pool of 13 Human patients were flown as analyte. The first flow cell of the sensor chip was used as a control surface (no protein), whereas the second flow cell was employed as the active surface. A range of dilution of aPL analytes prepared in the same buffer was injected on both flow cell surfaces at a flow rate of 30 μl/min. Association and dissociation times for each protein injection were set at 90 and 120 s, respectively. In all cases, sensorgrams were obtained from three different dilutions of aPL.
as §1
It was performed a peptide substitution scan of Ib-1-biot VSRGGMRKKKKPLTG (SEQ ID NO: 6) carrying the optimized epitope Ib-1-biot and based on an exchange of the underlined amino acid positions with the 20 main amino acids. The resulting peptide microarrays contained 140 different peptides. It was observed that the peptide substitution of the position n° 1, 2, 12 and 15 have significant influences on the ability to interact with aPL from patients 1, 2, 3, 4 and, in particular, form the plasma pool. Indeed, the substitution of the position 1, 12 or 15 by an Arginine (R) or a Lysine (K) increases the avidity of the peptide for all aPL from patients. […] In this context, the enhancement relative to Ib-1.0-biot-2x of identified peptides was evaluated (FIG. 2A). […] However, streptavidin being known to produce unspecific binding, it was used the ratio between aPL and a pool of human plasma as control (B/B0) (FIG. 2B, upper panel). This representation therefore allows to distinguish the real levels of interactions. It was then performed a dilution assay from dilution of 1/100 to 1/1,200,000 and it was observed relevant differences between the different identified peptides. By comparison of area under the curve (AUC), it was possible to detect the most prone-interacting peptide with aPL. Thus, the peptide IIa-8.0-biot-2x obtained the higher AUC (FIG. 2B, bottom panel). […]

[3] = tested on: binding of aPL to IIa-8.0-biot-2x; experiment: Inhibition experiments: remaining reactivity of pre-treated aPL on IIa-8.0-biot-2x ELISA; design: species or system Human; details: aPL pool sera preincubated 90 min at RT with 1, 10 and 10011 g/ml peptide
Description: To examine the functional ability of IIa-5.0, IIa-7.1, IIa-8.0 peptides and R39-R43 to inhibit the activity of pool of aPL isolated from APS patients, the remaining reactivity of aPL was evaluated for IIa-8.0-biot-2x which had previously been treated with increasing concentration of peptides. […] The flag-type orientation prevents potential interactions with the plate or with itself, particularly in solution. Streptavidin magnetic beads associated with IIa-5.0-biot-2x, IIa-7.1-biot-2x and Ha-8.0-biot-2x peptides have been generated. aPL was treated with increasing concentrations of beads before to measure the remaining binding activity of aPL on IIa-8.0-biot-2x ELISA (FIG. 7C).
To assess the ability of IIa-5.0-2x, IIa-7.1-2x and IIa-8.0-2x to inhibit in vitro the binding of aPL to IIa-8.0-biot-2x. aPL pool sera were preincubated for 90 min at RT with increasing concentrations (1, 10 and 10011 g/ml) of monomeric, dimeric IIa-5.0, IIa-7.1 and IIa-8.0 peptides and of IIa-5.0-biot-2x, IIa-7.1-biot-2x and IIa-8.0-biot-2x-associated beads (15, 30 and 60 pmol). 120 pmol correspond to the amount of IIa-8.0-biot-2x coated in well of Streptavidin Coated High Capacity Plates 96 well plates (Thermofisher). After the pre-incubation time, the serum was added anti-b2GP1 IgG (anti-IIa-8.0-2x) ELISA according to the protocol.

[4] = after a dilution of 100× of aPL (1/1,000) (FIG. 1B)
[5] = streptavidin plate, N-terminal biotin, 1/10 dilution of aPL pool (FIG. 1B)
[6] = aPL at 1/1,000 of dilution (FIG. 1C)
[7] = aPL at 1/10,000 of dilution (FIG. 1C)

**Q.** Which “interaction with aPL of flag-oriented biotinylated peptide versus nude peptide” value [1, 4] does the source give for “R39-R43-biot: R39-R43 peptide with a biotin at its N-terminal (Biotin-VSRGGMRKFICPLTG) [reference compound]” here?
**A.** 2.83 ×

**Q.** What about the “interaction with aPL of flag-oriented biotinylated peptide versus nude peptide” value [1, 5] of the same molecule?
**A.** 8.52 ×

**Q.** And the “resonance unit (RU), aPL avidity” value [2, 6]?
**A.** 27.36 RU

**Q.** And the “resonance unit (RU), aPL avidity” value [2, 7]?
**A.** 17.99 RU

**Q.** And the “sustained interaction / stability of binding with aPL (shape of SPR curves)” value [2]?
**A.** neither R39-R43-biot nor Ib-1-biot have sustained interaction with aPL

**Q.** How did the “interaction with aPL of flag-oriented biotinylated peptide versus nude peptide” value [1, 4] turn out when “Ib-1-biot: monomeric Ib-1 peptide with a biotin at its N-terminal (Biotin-VSRGGMRKKKKPLTG)” was run?
**A.** 4.3 ×

**Q.** And the “interaction with aPL of flag-oriented biotinylated peptide versus nude peptide” value [1, 5]?
**A.** 9.63 ×

**Q.** What about the “resonance unit (RU), aPL avidity” value [2, 6] of the same molecule?
**A.** 51.49 RU

**Q.** What about the “resonance unit (RU), aPL avidity” value [2, 7] of the same molecule?
**A.** 27.61 RU

**Q.** What about the “sustained interaction / stability of binding with aPL (shape of SPR curves)” value [2] of the same molecule?
**A.** neither R39-R43-biot nor Ib-1-biot have sustained interaction with aPL

**Q.** VSRGGMRKRKKKKTG [IIa-7.1] was tested. Which “inhibition of aPL binding to IIa-8.0-biot-2x ELISA by peptide in solution” value (from here on “inhibition of aPL binding”) [3] did it give?
**A.** prevents their further binding to IIa-8.0-biot-2x ELISA

**Q.** “VSRGGMRKFIKPLTG [Ia-1, corresponding to the first substitution scan]” was tested. Which “increase fold mean of aPL interaction relative to β2GP1” value [1] did it give?
**A.** 3.47 fold

**Q.** For VSRGGMRKRKKPLTK [IIa-5.0], which “inhibition of aPL binding” value [3] is on record?
**A.** prevents their further binding to IIa-8.0-biot-2x ELISA

**Q.** “VSRGGMRKKKKPLTG [Ib-1, corresponding to the second substitution scan]” was tested. Which “increase fold mean of aPL interaction relative to β2GP1” value [1] did it give?
**A.** 5.5 fold

**Q.** How did the “inhibition of aPL binding” value [3] turn out when “VSRGGMRKFICPLTG [R39-R43, reference compound]” was run?
**A.** failed to significantly inhibit

**Q.** What about the “increase fold mean of aPL interaction relative to β2GP1” value [1] of the same molecule?
**A.** same ability to interact with aPL than β2GP1

**Q.** How did the “inhibition of aPL binding” value [3] turn out when RSRGGMRKRKKPLTG [IIa-8.0] was run?
**A.** prevents their further binding to IIa-8.0-biot-2x ELISA

B1: Dom MI: recombinant Domain I-II of β2GP1 (protein)
chain: GRTCPKPDDLPFSTVVPLKTFYEPGEEITYSCKPGYVSRGGMRKFICPLTGLWPINTLKCTPRVCPFAGILENGAVRYTTFEYPNTISFSCNTGFYLNGADSAKCTEEGKWSPELPVCAP
**Q.** B1 was tested. Which “increase fold mean of aPL interaction relative to β2GP1” value [1] did it give?
**A.** same ability to interact with aPL than β2GP1
